The results in this text go back to patent publication US20060154942A1, “Quinazolinone derivatives useful as anti-hyperalgesic agents” (priority 2002, published 2006).

Turning to `CC(C)c1cc2nc(N)[nH]c(=O)c2cc1-c1ccc(Cl)cc1` [Example 59, 2-Amino-6-(4-chlorophenyl)-7-isopropyl-3H-quinazolin-4-one], the melting point – broadly, the temperature of the solid-liquid transition – was 326 to 330 °C.
